The record followed here is patent publication US11440913B2, “Aminoimidazopyridazines as kinase inhibitors” (BRISTOL-MYERS SQUIBB COMPANY, priority 2017, dated 2022).

In experiment [1] the target is His-GST-TVMV-hRIPK1(1-324) (Homo sapiens (Human), UniProt Q13546). Kind of experiment: RIPK1 HTRF Binding Assay. To be noted: HTRF binding, 1 h at rt; read-out: RIPK1 (IC50). The method in brief: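 HTRF probe-displacement binding: 1 nM His-GST-TVMV-hRIPK1(1-324) (baculovirus construct), 90.6 nM probe, 0.2 nM anti-GST-Tb in 20 mM HEPES, 10 mM MgCl2, 0.015% Brij-35, 4 mM DTT, 0.05 mg/mL BSA. Incubated 1 h at rt; FRET 520/495 nm ratio, inhibition relative to DMSO-only wells.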

In experiment [2] the test system is MLKL phosphorylation in HT29-L23 human colorectal adenocarcinoma cells. The experiment in a line: MLKL Phosphorylation High-Content Assay. It counts as cell-based. The following applies: 6 h, necroptosis induced with TNFα, SMAC mimetic and Z-VAD, read-out: pMLKL (IC50). In a few lines: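 HT29-L23 cells pretreated 30 min at 37 °C with compound (6.25 to 0.106 μM final), then necroptosis induced with TNFα 35 ng/mL, SMAC mimetic 700 nM and Z-VAD 140 nM for 6 h. Fixed cells immunostained for MLKL pS358 and imaged; IC50 and Ymax from 4-parameter logistic fit.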

What is called pIC50 is the negative decadic logarithm of the IC50, by convention in mol/L.

pIC50: −log10 of the molar value. Where two headings read alike, the source gives them in different places.

His-GST-TVMV-hRIPK1(1-324), sequence (Q13546 1-324): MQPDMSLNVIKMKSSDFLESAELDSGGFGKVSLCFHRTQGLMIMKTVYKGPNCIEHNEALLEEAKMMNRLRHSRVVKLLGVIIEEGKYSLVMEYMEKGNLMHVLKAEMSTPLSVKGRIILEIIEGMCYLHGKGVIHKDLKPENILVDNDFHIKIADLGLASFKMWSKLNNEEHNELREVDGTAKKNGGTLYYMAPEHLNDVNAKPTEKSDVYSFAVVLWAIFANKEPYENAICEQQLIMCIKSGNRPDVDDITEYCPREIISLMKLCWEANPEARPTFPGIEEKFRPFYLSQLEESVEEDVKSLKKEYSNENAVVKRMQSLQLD

For `O=C(CN1CCC(C(F)(F)F)CC1)Nc1cn2nc(-c3cccc(C(=O)NCC[C@@H](O)c4ccc(Cl)cc4)c3F)ccc2n1` [Example 428, N-[(3R)-3-(4-chlorophenyl)-3-hydroxypropyl]-2-fluoro-3-(2-{2-[4-(trifluoromethyl)piperidin-1-yl]acetamido}imidazo[1,2-b]pyridazin-6-yl)benzamide], the pIC50 in experiment [1] was 7.92; in experiment [2] (Homo sapiens), 8.05.

`[2H]C([2H])([2H])[C@H](NC(=O)c1ccc(C)c(-c2ccc3nc(NC(C)=O)cn3n2)c1F)c1cc(OC(F)(F)F)ccc1F` [Example 429, 3-{2-acetamidoimidazo [1,2-b]pyridazin-6-yl}-2-fluoro-N-[(1S)-1-[2-fluoro-5-(trifluoromethoxy)phenyl](2,2,2-Â^2Hâ,f)ethyl]-4-methylbenzamide]: the pIC50 in experiment [1] was 8.05; in experiment [2] (Homo sapiens), 7.70.

`CC(=O)Nc1cn2nc(-c3cc(C(=O)NCc4cc(OC(F)(F)F)ccc4F)ccc3Cl)ccc2n1` [Example 431, 4-chloro-3-{2-acetamidoimidazo [1,2-b]pyridazin-6-yl}-N-{[2-fluoro-5-(trifluoromethoxy)phenyl]methyl} benzamide]: the pIC50 in experiment [1] is 8.15; in experiment [2] (Homo sapiens), 7.04.

For the compound `CC(=O)Nc1cn2nc(-c3cc(C(=O)NCc4cc(OC(F)(F)F)ccc4F)ccc3F)ccc2n1` [Example 432, 3-{2-acetamidoimidazo [1,2-b]pyridazin-6-yl}-4-fluoro-N-{[2-fluoro-5-(trifluoromethoxy)phenyl]methyl} benzamide], the pIC50 was 7.44 in experiment [1] and 6.83 in experiment [2] (Homo sapiens).

As for “N-({3,5-difluoro-2-[(3S)-oxolan- 3-yloxy]phenyl}methyl)-5-{2- acetamidoimidazo[1,2-b]pyridazin- 6-yl}-2-(D3)methoxypyridine- 3-carboxamide [Example 45]”, the pIC50 in experiment [1] is 7.89; in experiment [2], 7.60.

“N-[(1R)-1-[2-fluoro-5- (trifluoromethyl)- phenyl]ethyl]-2- methyl-5-(2-{2-[4- (trifluoromethyl)piperidin-1- yl]acetamido}imidazo[1,2- b]pyridazin-6-yl)pyridine-3- carboxamide [Example 331]”: the pIC50 is 7.38 in experiment [1] and 7.17 in experiment [2].

For the compound “N-{[3,5-difluoro-2-(oxan-3- yloxy)phenyl]methyl}-5-{2- acetamidoimidazo[1,2-b]pyridazin- 6-yl}-2-(deutero)methoxy-6- methylpyridine-3-carboxamide [Example 170]”, the pIC50 in experiment [1] was 8.40; in experiment [2], 8.52.

Take “N-{[3,5-difluoro-2-(oxan-4- yloxy)phenyl](deutero)methyl}- 5-{2-acetamidoimidazo[1,2-b] pyridazin-6-yl}- 2-methylpyridine- 3-carboxamide [Example 192]”: the pIC50 was 8.52 in experiment [1] and 8.30 in experiment [2].
